Like-named read-outs stand apart in the source and are kept apart here.

What is called EC50 is the concentration giving half of the maximal effect.

The test system of assay [1] is YFV 17D. The assay is described as follows: microbe, parasite or virus in culture. The assay is classed as cell-based, Yellow fever virus. The conditions noted are these: for EC50: Yellow fever virus, Huh-7, read-out: EC50 (YFV 17D, μM).
In assay [2] the test system is YFV 17D. The conditions noted are these: read-out: EC50 against YFV; cited from earlier work.

As to `Nc1nc(Nc2ccc(Cl)c(Cl)c2)n(S(=O)(=O)c2ccc3ccccc3c2)n1` [RCB17160, N^5-(3,4-Dichlorophenyl)-1-(naphthalen-2-ylsulfonyl)-1H-1,2,4-triazole-3,5-diamine], the “activity against YFV (words, SAR discussion)” value (from here on “activity against YFV”) in the assay with YFV 17D [1] is “did not display any activity”. In the case of `CC(=O)c1ccc2c(S(=O)(=O)n3nc(Nc4ccc(C#N)c(Cl)c4)nc3N)cccc2c1` [RCB22055, 4-((1-((6-Acetylnaphthalen-1-yl)sulfonyl)-5-amino-1H-1,2,4-triazol-3-yl)amino)-2-chlorobenzonitrile], in the assay on YFV 17D [1], the “activity against YFV” value is recorded as “low micromolar activity”. Consider `N#Cc1c(Nc2ccc(F)c(F)c2)n[nH]c1NS(=O)(=O)c1ccc2ccccc2c1` [RCB16004, N-(4-Cyano-3-((3,4-difluorophenyl)amino)-1H-pyrazol-5-yl)naphthalene-2-sulfonamide], for which, in the assay with YFV 17D [1], the EC50 was > 36 µM. Still for that read-out and setting: then `N#Cc1c(Nc2ccc(Cl)cc2)n[nH]c1NS(=O)(=O)c1ccc2ccccc2c1` [RCB16002, N-(3-((4-Chlorophenyl)amino)-4-cyano-1H-pyrazol-5-yl)naphthalene-2-sulfonamide], with 7.1 µM. For `COc1ccc(Nc2nc(N)n(S(=O)(=O)c3cccc4ccccc34)n2)cc1` [RCB16086, N^3-(4-Methoxyphenyl)-1-(naphthalen-1-ylsulfonyl)-1H-1,2,4-triazole-3,5-diamine], in the assay on YFV 17D [1], the “activity against YFV” value was “complete loss of potency”. The same measure, in the same setting: the value for “4-((1-((6-Acetylnaphthalen-1-yl)sulfonyl)-5-amino-1H-1,2,4-triazol-3-yl)amino)benzonitrile [RCB22056]” was “inactive”. With `N#Cc1c(Nc2ccc(F)cc2)n[nH]c1NS(=O)(=O)c1ccc2ccccc2c1` [RCB16003, N-(4-Cyano-3-((4-fluorophenyl)amino)-1H-pyrazol-5-yl)naphthalene-2-sulfonamide], in the assay with YFV 17D [2], the EC50 is 3.2 µM.

The values are drawn from PMC10653066 (ACS Omega, 2023).
